Measurements taken from patent publication US20250169498A1, “SYNERGISTIC FUNGICIDAL INTERACTIONS OF A PICOLINAMIDE FUNGICIDE WITH OTHER FUNGICIDES AGAINST ASIAN SOYBEAN RUST” (CORTEVA AGRISCIENCE LLC, priority 2020, published 2025).

Legend:
[1] = system: Phakopsora pachyrhizi, PHAKPA; assay: 1-day protectant (1 DP) PHAKPA test on soybean seedlings; assay type: in vivo; conditions: alone; for pest or weed control at 12.5 ppm: rate 12.5 ppm; for pest or weed control at 0.0015 ppm: rate 0.0015 ppm; for pest or weed control at 0.006 ppm: rate 0.006 ppm; for pest or weed control at 0.049 ppm: rate 0.049 ppm; for pest or weed control at 0.024 ppm: rate 0.024 ppm
Protocol: (§1) Fungicides were evaluated vs. PHAKPA either alone or in binary or ternary mixtures by combining each fungicide with Compound I. Technical grades of materials were dissolved in 1.5 ml of acetone, which were then mixed with 13.5 ml of water containing 0.011% Tween 20. The fungicide solutions were applied onto soybean seedlings using an automated booth sprayer to run-off. All sprayed plants were allowed to air dry prior to further handling. Soybean plants (variety Williams 82) were grown in soil-less Metro mix, with one plant per pot. Two weeks old seedlings were used for testing. Plants were inoculated either 3 days prior to or 1 day after fungicide treatments. Plants were incubated for 24 h in a dark dew room at 22° C. and 100% RH then transferred to a growth room at 23° C. for disease to develop. Once disease fully expressed on untreated plants, disease severity was assessed on the sprayed monofoliate leaves.
(§2) Synergy factors were calculated using Colby's method. The expected disease control (% DC exp) of a mixture consisting of two or three components can be predicted by the following formula: […]
(§3) where A, B, C are the percent disease control given by the individual fungicide component at the defined rate in the mixture. If the ratio (synergy factor) between the observed disease control of the mixture (% DCobs) and the expected disease control of the mixture (% DCexp) is greater than 1, synergistic interaction is present.
(§4) When disease fully developed on the control plants, infection levels were assessed on treated plants visually and scored on a scale of 0 to 100 percent. Percentage of disease control was then calculated using the ratio of disease on treated plants relative to control plants. […]

[2] = system: Phakopsora pachyrhizi, PHAKPA; assay: 3-day curative (3 DC) PHAKPA test on soybean seedlings; assay type: in vivo; conditions: alone; for pest or weed control at 0.024 ppm: rate 0.024 ppm; for pest or weed control at 0.049 ppm: rate 0.049 ppm; for pest or weed control at 0.195 ppm: rate 0.195 ppm
Protocol: as §1, §2, §3, §4

[3] = Phakopsora pachyrhizi, rate 0.78 ppm, read-out: % DC obs
[4] = Phakopsora pachyrhizi, rate 3.125 ppm, read-out: % DC obs
[5] = Phakopsora pachyrhizi, read-out: % DC obs
[6] = Phakopsora pachyrhizi, rate 0.195 ppm, read-out: % DC obs
[7] = Phakopsora pachyrhizi, rate 37.5 ppm, read-out: % DC obs
[8] = Phakopsora pachyrhizi, rate 75 ppm, read-out: % DC obs
[9] = Phakopsora pachyrhizi, rate 0.012 ppm, read-out: % DC obs
[10] = Phakopsora pachyrhizi, rate 0.39 ppm, read-out: % DC obs
[11] = Phakopsora pachyrhizi, rate 200 ppm, read-out: % DC obs
[12] = Phakopsora pachyrhizi, rate 0.19 ppm, read-out: % DC obs

CNC(=O)/C(=N/OC)c1ccccc1Oc1ccccc1 [Metominostrobin, (2E)-2-methoxyimino-N-methyl-2-(2-phenoxyphenyl)acetamide]
pest or weed control at 0.78 ppm [1, 3]: 0%
pest or weed control at 3.125 ppm [1, 4]: 11.1%
pest or weed control at 12.5 ppm [1, 5]: 64.4%
pest or weed control at 0.78 ppm [2, 3]: 33.3%
pest or weed control at 3.125 ppm [2, 4]: 67.6%

CC(C)(C)C(O)(CCc1ccc(Cl)cc1)Cn1cncn1 (stereo not shown) [Tebuconazole, 1-(4-chlorophenyl)-4,4-dimethyl-3-(1,2,4-triazol-1-ylmethyl)pentan-3-ol]
pest or weed control at 0.0015 ppm [1, 5]: 0%
pest or weed control at 0.006 ppm [1, 5]: 11.1%
pest or weed control at 0.0015 ppm ([2]; Phakopsora pachyrhizi, rate 0.0015 ppm, read-out: % DC obs): 0%
pest or weed control at 0.006 ppm ([2]; Phakopsora pachyrhizi, rate 0.006 ppm, read-out: % DC obs): 0%
pest or weed control at 0.024 ppm [2, 5]: 11.7%

[Cl-].[Cu+2].[Cu+2].[OH-].[OH-].[OH-] [Cu Oxychloride]
% DC obs ([2]; rate 200 ppm): 13.7%

Cn1cc(C(=O)Nc2ccc(F)cc2-c2ccc(Cl)c(Cl)c2)c(C(F)F)n1 [Bixafen, N-(3′,4′-dichloro-5-fluoro[1,1′-biphenyl]-2-yl)-3-(difluoromethyl)-1-methyl-1H-pyrazole-4-carboxamide]
pest or weed control at 0.195 ppm [1, 6]: 0%
pest or weed control at 0.78 ppm [2, 3]: 0%
pest or weed control at 3.125 ppm [2, 4]: 0%

N#Cc1c(Cl)c(Cl)c(Cl)c(C#N)c1Cl [Chlorothalonil, tetrachlorisophthalonitrile]
pest or weed control at 37.5 ppm [1, 7]: 0%
pest or weed control at 75 ppm [1, 8]: 87%
pest or weed control at 37.5 ppm [2, 7]: 4.6%
pest or weed control at 75 ppm [2, 8]: 13.7%
pest or weed control at 150 ppm ([2]; Phakopsora pachyrhizi, rate 150 ppm, read-out: % DC obs): 18.3%

FC(F)C(F)(F)OCC(Cn1cncn1)c1ccc(Cl)cc1Cl (stereo not shown) [Tetraconazole, 1-[2-(2,4-dichlorophenyl)-3-(1,1,2,2-tetrafluoroethoxy)propyl]-1,2,4-triazole]
pest or weed control at 0.012 ppm [1, 9]: 0%
pest or weed control at 0.049 ppm [1, 5]: 0%
pest or weed control at 0.195 ppm [1, 6]: 90%
pest or weed control at 0.012 ppm [2, 9]: 13.7%
pest or weed control at 0.049 ppm [2, 5]: 13.7%

CO/C=C(/C(=O)OC)c1ccccc1Oc1cc(Oc2ccccc2C#N)ncn1 [Azoxystrobin, methyl (αE)-2-[[6-(2-cyanophenoxy)-4-pyrimidinyl]oxy]-α-(methoxymethylene)benzeneacetate]
pest or weed control at 0.024 ppm [1, 5]: 22.2%
pest or weed control at 0.098 ppm ([1]; Phakopsora pachyrhizi, rate 0.098 ppm, read-out: % DC obs): 50.4%
pest or weed control at 0.39 ppm [2, 10]: 31.7%

CON(C(=O)c1cn(C)nc1C(F)F)C(C)Cc1c(Cl)cc(Cl)cc1Cl (stereo not shown) [Pydiflumetofen, 3-(difluoromethyl)-N-methoxy-1-methyl-N-[1-(2,4,6-trichlorophenyl)propan-2-yl]pyrazole-4-carboxamide]
pest or weed control at 12.5 ppm [1, 5]: 0%
pest or weed control at 50 ppm ([1]; Phakopsora pachyrhizi, rate 50 ppm, read-out: % DC obs): 15.3%
pest or weed control at 200 ppm [1, 11]: 85.4%

CCC(=O)Oc1c(OC)ccnc1C(=O)N[C@@H](C)C(=O)O[C@@H](C)[C@@H](C)c1ccccc1C [Compound I]
pest or weed control at 0.39 ppm [1, 10]: 79.2%
pest or weed control at 1.56 ppm ([2]; Phakopsora pachyrhizi, rate 1.56 ppm, read-out: % DC obs): 77.6%

CO/C=C(/C(=O)OC)c1ccccc1COc1cccc(C(F)(F)F)n1 [Picoxystrobin, methyl (E)-3-methoxy-2-[2-[[6-(trifluoromethyl)pyridin-2-yl]oxymethyl]phenyl]prop-2-enoate]
pest or weed control at 0.195 ppm [1, 6]: 0%
pest or weed control at 0.78 ppm [1, 3]: 80%
% DC obs ([1]; rate 0.195 ppm): 0%
% DC obs ([1]; rate 0.78 ppm): 80%
pest or weed control at 0.049 ppm [2, 5]: 18.5%
pest or weed control at 0.195 ppm [2, 5]: 14.8%
pest or weed control at 0.78 ppm [2, 3]: 53.3%

Cn1cc(C(=O)Nc2cccc3c2C2CCC3C2=C(Cl)Cl)c(C(F)F)n1 (stereo not shown) [Benzovindiflupyr, N-[11-(dichloromethylidene)-3-tricyclo[6.2.1.0]undeca-2(7),3,5-trienyl]-3-(difluoromethyl)-1-methylpyrazole-4-carboxamide]
% DC obs ([1]; rate 0.195 ppm): 3.7%
% DC obs ([1]; rate 0.78 ppm): 11.1%
% DC obs ([1]; rate 3.125 ppm): 80.0%
% DC obs ([2]; rate 0.78 ppm): 11.7%

CC(Cc1ccc(C(C)(C)C)cc1)CN1C[C@@H](C)O[C@@H](C)C1 (stereo partly drawn) [Fenpropimorph, (2S,6R)-4-[3-(4-tert-butylphenyl)-2-methylpropyl]-2,6-dimethylmorpholine]
pest or weed control at 100 ppm ([2]; Phakopsora pachyrhizi, rate 100 ppm, read-out: % DC obs): 36.4%
pest or weed control at 200 ppm [2, 11]: 61.9%

CCCC1COC(Cn2cncn2)(c2ccc(Cl)cc2Cl)O1 (stereo not shown) [Propiconazole, 1-[[2-(2,4-dichlorophenyl)-4-propyl-1,3-dioxolan-2-yl]methyl]-1,2,4-triazole]
pest or weed control at 0.195 ppm [1, 6]: 19.9%
pest or weed control at 0.78 ppm [1, 3]: 78%
pest or weed control at 0.049 ppm [2, 5]: 9.2%
pest or weed control at 0.195 ppm [2, 5]: 59.1%

Fc1ccc([C@]2(Cn3cncn3)O[C@H]2c2ccccc2Cl)cc1 (racemic) [Epoxiconazole, rel-1-[[(2R,3S)-3-(2-chlorophenyl)-2-(4-fluorophenyl)oxiranyl]methyl]-1H-1,2,4-triazole]
pest or weed control at 0.006 ppm [1, 5]: 3.7%
pest or weed control at 0.024 ppm [1, 5]: 48.1%
pest or weed control at 0.024 ppm [2, 5]: 0%

zinc manganese(2+)N-[2-(sulfidocarbothioylamino)ethyl]carbamodithioate [Mancozeb]
% DC obs ([1]; rate 0.19 ppm): 3.8%
% DC obs ([1]; rate 0.78 ppm): 0%
% DC obs ([1]; rate 3.125 ppm): 0%
% DC obs ([2]; rate 0.19 ppm): 14.8%
% DC obs ([2]; rate 0.78 ppm): 14.8%
% DC obs ([2]; rate 3.125 ppm): 0%
% DC obs ([2]; rate not given): 0%

CO/N=C(/C(=O)OC)c1ccccc1CO/N=C(\C)c1cccc(C(F)(F)F)c1 [Trifloxystrobin, methyl (2E)-2-methoxyimino-2-[2-[[(E)-1-[3-(trifluoromethyl)phenyl]ethylideneamino]oxymethyl]phenyl]acetate]
pest or weed control at 0.195 ppm [2, 5]: 18.3%

CC(O)(Cn1cncn1)c1ccc(Oc2ccc(Cl)cc2)cc1C(F)(F)F (stereo not shown) [Mefentrifluconazole, 2-[4-(4-chlorophenoxy)-2-(trifluoromethyl)phenyl]-1-(1,2,4-triazol-1-yl)propan-2-ol]
pest or weed control at 0.049 ppm [1, 5]: 9.9%
pest or weed control at 0.195 ppm [1, 6]: 87%
pest or weed control at 0.049 ppm [2, 5]: 43.7%
pest or weed control at 0.195 ppm [2, 5]: 69.1%

OC(Cc1ccccc1Cl)(Cn1[nH]cnc1=S)C1(Cl)CC1 (stereo not shown) [Prothioconazole, 2-[2-(1-chlorocyclopropyl)-3-(2-chlorophenyl)-2-hydroxypropyl]-1,2-dihydro-3H-1,2,4-triazole-3-thione]
pest or weed control at 0.0015 ppm [1, 5]: 0%
pest or weed control at 0.006 ppm [1, 5]: 7.4%

CC1COC(Cn2cncn2)(c2ccc(Oc3ccc(Cl)cc3)cc2Cl)O1 (stereo not shown) [Difenoconazole, 1-[[2-[2-chloro-4-(4-chlorophenoxy)phenyl]-4-methyl-1,3-dioxolan-2-yl]methyl]-1,2,4-triazole]
pest or weed control at 0.19 ppm [1, 12]: 41.9%
pest or weed control at 0.19 ppm [2, 12]: 18.3%

Cn1cc(C(=O)Nc2ccccc2-c2cc(F)c(F)c(F)c2)c(C(F)F)n1 [Fluxapyroxad, 3-(difluoromethyl)-1-methyl-N-[2-(3,4,5-trifluorophenyl)phenyl]pyrazole-4-carboxamide]
pest or weed control at 0.195 ppm [1, 6]: 3.7%
pest or weed control at 0.78 ppm [1, 3]: 11.1%
pest or weed control at 3.125 ppm [1, 4]: 80%
pest or weed control at 0.195 ppm [2, 5]: 0%
pest or weed control at 3.125 ppm [2, 4]: 17.6%

CC(C1CC1)C(O)(Cn1cncn1)c1ccc(Cl)cc1 (stereo not shown) [Cyproconazole, 2-(4-chlorophenyl)-3-cyclopropyl-1-(1,2,4-triazol-1-yl)butan-2-ol]
pest or weed control at 0.0015 ppm [1, 5]: 11.1%
pest or weed control at 0.006 ppm [1, 5]: 3.7%
pest or weed control at 0.024 ppm [1, 5]: 11.1%
